Source: PubChem BioAssay (NCI)
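These data come from cells grown in 96-well plates and exposed to compound for 48 hours at five concentrations. At the GI50, growth is halved. At the TGI there is no net growth.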

Columns and labels:
Assay in all cases: DTP human tumour cell line panel, 48 h
786-0 renal = system: 786-0 renal
A498 renal = system: A498 renal
A549 NSCLC = system: A549 NSCLC
ACHN renal = system: ACHN renal
BT-549 breast = system: BT-549 breast
CAKI-1 renal = system: CAKI-1 renal
CCRF-CEM leukemia = system: CCRF-CEM leukemia
COLO 205 colon = system: COLO 205 colon
DU-145 prostate = system: DU-145 prostate
EKVX NSCLC = system: EKVX NSCLC
HCC-2998 colon = system: HCC-2998 colon
HCT-116 colon = system: HCT-116 colon
HCT-15 colon = system: HCT-15 colon
HL-60(TB) leukemia = system: HL-60(TB) leukemia
HOP-62 NSCLC = system: HOP-62 NSCLC
HOP-92 NSCLC = system: HOP-92 NSCLC
HS 578T breast = system: HS 578T breast
HT29 colon = system: HT29 colon
IGROV1 ovarian = system: IGROV1 ovarian
K-562 leukemia = system: K-562 leukemia
KM12 colon = system: KM12 colon
LOX IMVI melanoma = system: LOX IMVI melanoma
M14 melanoma = system: M14 melanoma
MALME-3M melanoma = system: MALME-3M melanoma
MCF7 breast = system: MCF7 breast
MDA-MB-231 breast = system: MDA-MB-231 breast
MDA-MB-435 = system: MDA-MB-435
MOLT-4 leukemia = system: MOLT-4 leukemia
NCI-H226 lung = system: NCI-H226 lung
NCI-H23 lung = system: NCI-H23 lung
NCI-H460 lung = system: NCI-H460 lung
NCI-H522 lung = system: NCI-H522 lung
NCI/ADR-RES ovarian = system: NCI/ADR-RES ovarian
OVCAR-3 ovarian = system: OVCAR-3 ovarian
OVCAR-4 ovarian = system: OVCAR-4 ovarian
OVCAR-5 ovarian = system: OVCAR-5 ovarian
PC-3 prostate = system: PC-3 prostate
RPMI-8226 leukemia = system: RPMI-8226 leukemia
RXF 393 renal = system: RXF 393 renal
SF-268 CNS = system: SF-268 CNS
SF-295 CNS = system: SF-295 CNS
SF-539 CNS = system: SF-539 CNS
SK-MEL-2 melanoma = system: SK-MEL-2 melanoma
SK-MEL-28 melanoma = system: SK-MEL-28 melanoma
SK-MEL-5 melanoma = system: SK-MEL-5 melanoma
SK-OV-3 ovarian = system: SK-OV-3 ovarian
SN12C renal = system: SN12C renal
SNB-19 CNS = system: SNB-19 CNS
SNB-75 CNS = system: SNB-75 CNS
SR leukemia = system: SR leukemia
SW-620 colon = system: SW-620 colon
T-47D breast = system: T-47D breast
TK-10 renal = system: TK-10 renal
U251 CNS = system: U251 CNS
UACC-257 melanoma = system: UACC-257 melanoma
UACC-62 melanoma = system: UACC-62 melanoma
UO-31 renal = system: UO-31 renal

In the case of `CCCCCSC1C2C(=O)C(Br)=CC13CCNc1c(O)c4c5c(c13)=[N+]2CCC=5C=N4` (centres undefined), the GI50 (786-0 renal) is reported as 2700 nM, the TGI (786-0 renal) is reported as 5120 nM and the GI50 (A498 renal) is reported as 3010 nM. The TGI (A498 renal) was 6610 nM, the GI50 (A549 NSCLC) was 2880 nM and the TGI (A549 NSCLC) was 5800 nM. For the same compound, the GI50 (ACHN renal) was 1750 nM, the TGI (ACHN renal) was 3970 nM and the GI50 (BT-549 breast) was 2610 nM. The TGI (BT-549 breast) was 4960 nM, the GI50 (CAKI-1 renal) was 2470 nM and the TGI (CAKI-1 renal) was 4790 nM. It also gave a GI50 (CCRF-CEM leukemia) of 1010 nM, a TGI (CCRF-CEM leukemia) of 11600 nM and a GI50 (COLO 205 colon) of 303 nM. The TGI (COLO 205 colon) was 613 nM, the GI50 (DU-145 prostate) was 1740 nM and the TGI (DU-145 prostate) was 3720 nM. It also gave a GI50 (EKVX NSCLC) of 1820 nM, a TGI (EKVX NSCLC) of 5070 nM and a GI50 (HCC-2998 colon) of 1250 nM. For the same compound, the TGI (HCC-2998 colon) was 3880 nM, the GI50 (HCT-116 colon) was 419 nM and the TGI (HCT-116 colon) was 1280 nM. It also gave a GI50 (HCT-15 colon) of 2040 nM, a TGI (HCT-15 colon) of 6090 nM and a GI50 (HL-60(TB) leukemia) of 671 nM. It also gave a TGI (HL-60(TB) leukemia) of 2400 nM, a GI50 (HOP-62 NSCLC) of 3030 nM and a TGI (HOP-62 NSCLC) of 5800 nM. The GI50 (HOP-92 NSCLC) was 3020 nM, the TGI (HOP-92 NSCLC) was 6200 nM and the GI50 (HS 578T breast) was 5470 nM. For the same compound, the TGI (HS 578T breast) was 16700 nM, the GI50 (HT29 colon) was 490 nM and the TGI (HT29 colon) was 1540 nM. For the same compound, the GI50 (IGROV1 ovarian) was 913 nM, the TGI (IGROV1 ovarian) was 3610 nM and the GI50 (K-562 leukemia) was 2620 nM. The TGI (K-562 leukemia) was 12200 nM, the GI50 (KM12 colon) was 2530 nM and the TGI (KM12 colon) was 6260 nM. For the same compound, the GI50 (LOX IMVI melanoma) was 842 nM, the TGI (LOX IMVI melanoma) was 3350 nM and the GI50 (M14 melanoma) was 1510 nM. For the same compound, the TGI (M14 melanoma) was 3680 nM, the GI50 (MALME-3M melanoma) was 332 nM and the TGI (MALME-3M melanoma) was 1370 nM. For the same compound, the GI50 (MCF7 breast) was 341 nM, the TGI (MCF7 breast) was 883 nM and the GI50 (MDA-MB-231 breast) was 417 nM. It also gave a TGI (MDA-MB-231 breast) of 1500 nM, a GI50 (MDA-MB-435) of 304 nM and a TGI (MDA-MB-435) of 571 nM. It also gave a GI50 (MOLT-4 leukemia) of 762 nM, a TGI (MOLT-4 leukemia) of 5730 nM and a GI50 (NCI-H226 lung) of 3150 nM. For the same compound, the TGI (NCI-H226 lung) was 6320 nM, the GI50 (NCI-H23 lung) was 1330 nM and the TGI (NCI-H23 lung) was 6210 nM. For the same compound, the GI50 (NCI-H460 lung) was 1130 nM, the TGI (NCI-H460 lung) was 4320 nM and the GI50 (NCI-H522 lung) was 452 nM. The TGI (NCI-H522 lung) was 1260 nM, the GI50 (NCI/ADR-RES ovarian) was 4420 nM and the TGI (NCI/ADR-RES ovarian) was 16700 nM. For the same compound, the GI50 (OVCAR-3 ovarian) was 405 nM, the TGI (OVCAR-3 ovarian) was 1440 nM and the GI50 (OVCAR-4 ovarian) was 256 nM. It also gave a TGI (OVCAR-4 ovarian) of 609 nM, a GI50 (OVCAR-5 ovarian) of 3070 nM and a TGI (OVCAR-5 ovarian) of 7080 nM. The GI50 (PC-3 prostate) was 2000 nM, the TGI (PC-3 prostate) was 7450 nM and the GI50 (RPMI-8226 leukemia) was 3650 nM. The TGI (RPMI-8226 leukemia) was 11000 nM, the GI50 (RXF 393 renal) was 1870 nM and the TGI (RXF 393 renal) was 4420 nM. It also gave a GI50 (SF-268 CNS) of 2100 nM, a TGI (SF-268 CNS) of 5340 nM and a GI50 (SF-295 CNS) of 3890 nM. For the same compound, the TGI (SF-295 CNS) was 9610 nM, the GI50 (SF-539 CNS) was 2780 nM and the TGI (SF-539 CNS) was 5080 nM. For the same compound, the GI50 (SK-MEL-2 melanoma) was 2100 nM, the TGI (SK-MEL-2 melanoma) was 5600 nM and the GI50 (SK-MEL-28 melanoma) was 2120 nM. For the same compound, the TGI (SK-MEL-28 melanoma) was 4550 nM, the GI50 (SK-MEL-5 melanoma) was 1850 nM and the TGI (SK-MEL-5 melanoma) was 3960 nM. The GI50 (SK-OV-3 ovarian) was 3220 nM, the TGI (SK-OV-3 ovarian) was 6430 nM and the GI50 (SN12C renal) was 414 nM. The TGI (SN12C renal) was 1120 nM, the GI50 (SNB-19 CNS) was 2690 nM and the TGI (SNB-19 CNS) was 4970 nM. It also gave a GI50 (SNB-75 CNS) of 2350 nM, a TGI (SNB-75 CNS) of 4560 nM and a GI50 (SR leukemia) of 1350 nM. For the same compound, the TGI (SR leukemia) was 14700 nM, the GI50 (SW-620 colon) was 545 nM and the TGI (SW-620 colon) was 1550 nM. The GI50 (T-47D breast) was 1740 nM, the TGI (T-47D breast) was 6030 nM and the GI50 (TK-10 renal) was 2980 nM. The TGI (TK-10 renal) was 5340 nM, the GI50 (U251 CNS) was 2560 nM and the TGI (U251 CNS) was 5670 nM. It also gave a GI50 (UACC-257 melanoma) of 385 nM, a TGI (UACC-257 melanoma) of 1200 nM and a GI50 (UACC-62 melanoma) of 952 nM. For the same compound, the TGI (UACC-62 melanoma) was 3750 nM, the GI50 (UO-31 renal) was 2110 nM and the TGI (UO-31 renal) was 4420 nM.
